Assay results taken from paper PMC6416464 (Drug Metabolism Letters, 2018).
Read-outs that look alike come from different tables or passages of the source.

Assays:
[1] = Metabolic stability, incubation with human liver cytosol; format: in vitro ADME; settings: 1 µM test compound, 1 mg/mL protein
[2] = target: T1, CYP3A4 (Homo sapiens, UniProt P08684); settings: microsomes
[3] = target: rCYP3A4 (Homo sapiens, UniProt P08684)
[4] = cited from earlier work
[5] = Metabolic stability, incubation with human liver microsomes; settings: 1 µM test compound, 0.5 mg/mL protein
[6] = target: T2, CYP1A2 (Homo sapiens, UniProt P05177); assay: CYP inhibition in human liver microsomes, CYP1A2; settings: HLM; for % Inhibition of Control Activity CYP1A2: NI: No Inhibitin
T2 sequence (P05177 1-516): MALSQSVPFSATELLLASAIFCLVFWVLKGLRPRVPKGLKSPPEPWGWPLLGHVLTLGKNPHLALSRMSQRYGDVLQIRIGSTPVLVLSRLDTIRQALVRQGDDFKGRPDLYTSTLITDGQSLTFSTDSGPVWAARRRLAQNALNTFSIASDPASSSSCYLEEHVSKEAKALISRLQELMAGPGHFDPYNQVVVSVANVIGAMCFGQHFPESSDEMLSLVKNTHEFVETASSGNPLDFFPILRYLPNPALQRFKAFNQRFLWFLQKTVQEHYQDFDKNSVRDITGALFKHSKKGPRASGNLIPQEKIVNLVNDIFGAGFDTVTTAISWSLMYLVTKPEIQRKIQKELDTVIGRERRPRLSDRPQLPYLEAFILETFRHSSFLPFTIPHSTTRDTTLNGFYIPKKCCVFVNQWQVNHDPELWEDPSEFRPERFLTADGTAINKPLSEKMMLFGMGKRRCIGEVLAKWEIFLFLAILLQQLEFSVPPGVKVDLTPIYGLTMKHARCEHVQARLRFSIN

[7] = target: T3, CYP2C8 (Homo sapiens, UniProt P10632); assay: CYP inhibition in human liver microsomes, CYP2C8; settings: for % Inhibition of Control Activity CYP2C8: NI: No Inhibitin
T3 sequence (P10632 1-490): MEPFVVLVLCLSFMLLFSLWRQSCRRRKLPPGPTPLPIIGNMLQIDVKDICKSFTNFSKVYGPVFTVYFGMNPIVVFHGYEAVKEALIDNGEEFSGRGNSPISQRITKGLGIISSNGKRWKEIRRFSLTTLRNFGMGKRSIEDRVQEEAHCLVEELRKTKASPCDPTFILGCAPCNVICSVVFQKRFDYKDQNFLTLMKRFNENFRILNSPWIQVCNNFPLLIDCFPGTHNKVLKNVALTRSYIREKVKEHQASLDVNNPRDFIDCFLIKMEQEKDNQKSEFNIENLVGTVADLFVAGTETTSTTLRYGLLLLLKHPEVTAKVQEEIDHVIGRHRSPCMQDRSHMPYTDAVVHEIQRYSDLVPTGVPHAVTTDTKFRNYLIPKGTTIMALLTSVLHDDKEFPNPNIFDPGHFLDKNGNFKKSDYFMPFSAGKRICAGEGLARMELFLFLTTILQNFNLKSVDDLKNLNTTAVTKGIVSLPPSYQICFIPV

[8] = target: CYP2C9 (Homo sapiens, UniProt P11712); assay: CYP inhibition in human liver microsomes, CYP2C9; settings: HLM; for % Inhibition of Control Activity CYP2C9: NI: No Inhibitin
[9] = target: CYP2C19 (Homo sapiens, UniProt P33261); assay: CYP inhibition in human liver microsomes, CYP2C19; settings: HLM; for % Inhibition of Control Activity CYP2C19: NI: No Inhibitin
[10] = target: CYP2D6 (Homo sapiens, UniProt P10635); assay: CYP inhibition in human liver microsomes, CYP2D6; settings: HLM, NI: No Inhibitin
[11] = target: T4, rCYP1A2 (Homo sapiens, UniProt P05177); assay: Metabolic stability / reaction phenotyping with recombinant human CYP1A2; settings: for % Metabolized at 30 min Incubation with Human Liver Fractions/Enzymes rCYP1A2: 1 µM test compound, 100 pmol/mL
T4 sequence (P05177 1-516): T2 sequence (P05177 1-516)

[12] = target: T5, rCYP2C8 (Homo sapiens, UniProt P10632); assay: Metabolic stability / reaction phenotyping with recombinant human CYP2C8; settings: for % Metabolized at 30 min Incubation with Human Liver Fractions/Enzymes rCYP2C8: 1 µM test compound, 100 pmol/mL
T5 sequence (P10632 1-490): T3 sequence (P10632 1-490)

[13] = target: rCYP2C9 (Homo sapiens, UniProt P11712); assay: Metabolic stability / reaction phenotyping with recombinant human CYP2C9; settings: for % Metabolized at 30 min Incubation with Human Liver Fractions/Enzymes rCYP2C9: 1 µM test compound, 100 pmol/mL
[14] = target: rCYP2D6 (Homo sapiens, UniProt P10635); assay: Metabolic stability / reaction phenotyping with recombinant human CYP2D6; settings: for % Metabolized at 30 min Incubation with Human Liver Fractions/Enzymes rCYP2D6: 1 µM test compound, 100 pmol/mL
[15] = target: rCYP2C19 (Homo sapiens, UniProt P33261); assay: Metabolic stability / reaction phenotyping with recombinant human CYP2C19; settings: for % Metabolized at 30 min Incubation with Human Liver Fractions/Enzymes rCYP2C19: 1 µM test compound, 100 pmol/mL
[16] = target: T1, CYP3A4; assay: in vitro; settings: microsomes, pH 7.4, % Inhibition of Control Activity CYP3A4 (substrate, testosterone)
[17] = target: T1, CYP3A4; assay: in vitro; settings: microsomes, pH 7.4
[18] = human, recombinant enzyme, pH 7.4
[19] = human, human liver microsomes, pH 7.4, probe paclitaxel
[20] = human, recombinant human CYP1A2, 1 µM, pH 7.4
[21] = human, recombinant human CYP2C8, 1 µM, pH 7.4
[22] = human, recombinant human CYP2D6, 1 µM, pH 7.4
[23] = human, recombinant human CYP2C19, 1 µM, pH 7.4

rCYP3A4, sequence (P08684 whole entry): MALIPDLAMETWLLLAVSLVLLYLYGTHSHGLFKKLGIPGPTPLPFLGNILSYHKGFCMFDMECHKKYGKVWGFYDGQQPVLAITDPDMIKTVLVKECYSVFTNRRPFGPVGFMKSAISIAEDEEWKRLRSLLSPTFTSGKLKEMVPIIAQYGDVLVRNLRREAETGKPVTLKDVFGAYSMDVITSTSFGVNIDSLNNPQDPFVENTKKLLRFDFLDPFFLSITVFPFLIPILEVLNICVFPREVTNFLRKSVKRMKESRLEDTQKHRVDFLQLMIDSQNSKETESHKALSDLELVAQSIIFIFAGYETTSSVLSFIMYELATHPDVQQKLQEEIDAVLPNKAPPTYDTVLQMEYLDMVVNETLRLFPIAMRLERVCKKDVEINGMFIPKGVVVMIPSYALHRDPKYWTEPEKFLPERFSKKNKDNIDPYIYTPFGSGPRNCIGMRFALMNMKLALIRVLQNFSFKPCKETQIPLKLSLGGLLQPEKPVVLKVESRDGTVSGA
CYP2C19, sequence (P33261 whole entry): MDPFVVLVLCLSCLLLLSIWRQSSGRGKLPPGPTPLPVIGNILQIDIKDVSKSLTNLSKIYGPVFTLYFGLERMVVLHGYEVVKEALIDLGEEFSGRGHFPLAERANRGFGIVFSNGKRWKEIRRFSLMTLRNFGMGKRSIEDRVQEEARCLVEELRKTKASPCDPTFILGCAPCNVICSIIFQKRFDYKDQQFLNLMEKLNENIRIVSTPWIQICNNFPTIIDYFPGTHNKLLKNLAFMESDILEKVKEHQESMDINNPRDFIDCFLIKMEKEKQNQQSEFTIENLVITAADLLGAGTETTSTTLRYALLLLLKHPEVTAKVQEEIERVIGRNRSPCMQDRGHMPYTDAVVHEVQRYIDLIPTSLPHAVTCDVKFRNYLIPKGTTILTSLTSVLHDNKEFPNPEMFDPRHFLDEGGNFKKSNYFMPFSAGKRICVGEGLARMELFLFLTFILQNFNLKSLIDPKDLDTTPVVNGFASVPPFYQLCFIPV
rCYP2C19, sequence (P33261 whole entry): as above
T1 sequence (P08684 2-503): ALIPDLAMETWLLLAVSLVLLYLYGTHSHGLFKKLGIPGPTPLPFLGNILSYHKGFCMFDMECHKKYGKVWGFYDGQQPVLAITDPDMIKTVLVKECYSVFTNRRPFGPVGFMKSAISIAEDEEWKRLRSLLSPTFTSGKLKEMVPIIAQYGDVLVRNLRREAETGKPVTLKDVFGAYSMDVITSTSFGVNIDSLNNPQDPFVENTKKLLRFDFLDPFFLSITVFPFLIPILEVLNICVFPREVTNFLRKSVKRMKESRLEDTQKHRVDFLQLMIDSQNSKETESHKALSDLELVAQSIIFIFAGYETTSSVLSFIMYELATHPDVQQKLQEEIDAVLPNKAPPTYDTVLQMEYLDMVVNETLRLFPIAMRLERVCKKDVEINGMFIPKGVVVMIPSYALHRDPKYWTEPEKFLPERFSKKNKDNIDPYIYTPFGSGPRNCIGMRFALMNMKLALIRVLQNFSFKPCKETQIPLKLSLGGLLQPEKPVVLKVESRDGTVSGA
rCYP2D6, sequence (P10635 whole entry): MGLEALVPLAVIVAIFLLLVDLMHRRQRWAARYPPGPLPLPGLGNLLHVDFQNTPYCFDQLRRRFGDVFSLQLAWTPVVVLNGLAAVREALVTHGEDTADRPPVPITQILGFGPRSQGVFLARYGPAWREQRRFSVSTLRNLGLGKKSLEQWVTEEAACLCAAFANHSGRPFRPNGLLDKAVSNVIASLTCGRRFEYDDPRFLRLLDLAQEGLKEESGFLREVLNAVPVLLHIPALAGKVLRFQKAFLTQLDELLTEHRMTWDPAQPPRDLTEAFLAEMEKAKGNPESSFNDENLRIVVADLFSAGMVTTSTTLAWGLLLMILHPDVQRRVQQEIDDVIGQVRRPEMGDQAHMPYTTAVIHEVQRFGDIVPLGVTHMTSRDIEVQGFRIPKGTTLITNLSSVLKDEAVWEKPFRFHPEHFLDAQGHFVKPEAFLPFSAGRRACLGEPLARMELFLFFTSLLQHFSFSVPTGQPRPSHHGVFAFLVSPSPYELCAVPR
CYP2D6, sequence (P10635 whole entry): as above
CYP2C9, sequence (P11712 whole entry): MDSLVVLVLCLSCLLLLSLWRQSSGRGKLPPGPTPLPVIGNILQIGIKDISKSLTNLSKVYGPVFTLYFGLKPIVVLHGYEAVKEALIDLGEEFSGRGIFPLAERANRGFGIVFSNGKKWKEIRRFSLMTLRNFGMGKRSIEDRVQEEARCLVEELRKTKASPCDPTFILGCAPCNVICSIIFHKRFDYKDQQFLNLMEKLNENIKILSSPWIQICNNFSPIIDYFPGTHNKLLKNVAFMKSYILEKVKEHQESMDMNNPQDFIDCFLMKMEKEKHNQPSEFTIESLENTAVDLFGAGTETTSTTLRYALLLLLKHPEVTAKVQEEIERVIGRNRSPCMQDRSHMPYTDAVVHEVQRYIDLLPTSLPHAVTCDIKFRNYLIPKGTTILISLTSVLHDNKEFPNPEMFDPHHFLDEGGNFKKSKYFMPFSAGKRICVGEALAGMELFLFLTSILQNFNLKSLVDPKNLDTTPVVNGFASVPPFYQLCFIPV
rCYP2C9, sequence (P11712 whole entry): as above

In the case of triclabendazole sulfoxide, the “% Metabolized at 30 min Incubation with Human Liver Fractions/Enzymes Cytosol” value [1] is reported as 0.00%, the “% Inhibition of Control Activity CYP3A4 (substrate, testosterone)” value (shortened to “% Inhibition of Control Activity CYP3A4”) ([2]; 2 µM) is reported as 0.18% and the “% Inhibition of Control Activity CYP3A4” value ([2]; 10 µM) is reported as 14.43%. The “Predicted Microsomal Clint, CYP3A4” value [3] was 1.626 µL/min/mg Protein, the “% Metabolized at 30 min Incubation with Human Liver Fractions/Enzymes rCYP3A4” value ([3]; 1 µM test compound, 100 pmol/mL, 30 min) was 4.30% and the “rCYP Clint, CYP3A4” value ([3]; human, recombinant enzyme) was 0.015 µL/min/pmol. For the same molecule, the “% Contribution of CYP Enzymes (fmCYP) in Metabolism, CYP3A4” value ([3]; recombinant enzyme) was 2.35%, the Cmax ([4]; human patients at therapeutic doses of triclabendazole) was 38.6 µM and the half-life ([4]; humans) was 11 to 12 h. For the same molecule, the peak concentration ([4]; humans, standard dose of triclabendazole of 10 mg/kg) was 38.6 µM, the “% Metabolized at 30 min Incubation with Human Liver Fractions/Enzymes HLM” value [5] was 18.08% and the “% Inhibition of Control Activity CYP1A2” value ([6]; inhibitor 2 µM) was 39.42%. The “% Inhibition of Control Activity CYP1A2” value ([6]; inhibitor 10 µM) was 69.42%, the IC50 ([6]; read-out: IC50 CYP 1A2) was 4.19 µM and the “% Inhibition of Control Activity CYP2C8” value ([7]; inhibitor 2 µM, HLM) was 11.20%. For the same molecule, the “% Inhibition of Control Activity CYP2C8” value ([7]; inhibitor 10 µM, HLM) was 53.67%, the IC50 ([7]; read-out: IC50 CYP 2C8, HLM) was 8.95 µM and the “% Inhibition of Control Activity CYP2C9” value ([8]; inhibitor 2 µM) was 49.60%. For the same molecule, the “% Inhibition of Control Activity CYP2C9” value ([8]; inhibitor 10 µM) was 86.62%, the IC50 ([8]; read-out: IC50 CYP 2C9) was 1.95 µM and the “% Inhibition of Control Activity CYP2C19” value ([9]; inhibitor 2 µM) was 84.33%. The “% Inhibition of Control Activity CYP2C19” value ([9]; inhibitor 10 µM) was 88.87%, the IC50 ([9]; read-out: IC50 CYP 2C19) was 0.22 µM and the “% Inhibition of Control Activity CYP2D6” value ([10]; inhibitor 2 µM) was 1.63%. The “% Inhibition of Control Activity CYP2D6” value ([10]; inhibitor 10 µM) was 3.13%, the “Predicted Microsomal Clint, CYP1A2” value [11] was 3.968 µL/min/mg Protein and the “% Metabolized at 30 min Incubation with Human Liver Fractions/Enzymes rCYP1A2” value [11] was 20.46%. For the same molecule, the “rCYP Clint, CYP1A2” value ([11]; human, recombinant enzyme) was 0.076 µL/min/pmol, the “% Contribution of CYP Enzymes (fmCYP) in Metabolism, CYP1A2” value ([11]; recombinant enzyme) was 5.73% and the “% Metabolized at 30 min Incubation with Human Liver Fractions/Enzymes rCYP2C8” value [12] was 0.00%. The “Predicted Microsomal Clint, CYP2C9” value [13] was 57.057 µL/min/mg Protein, the “% Metabolized at 30 min Incubation with Human Liver Fractions/Enzymes rCYP2C9” value [13] was 83.19% and the “rCYP Clint, CYP2C9” value ([13]; human, recombinant enzyme) was 0.594 µL/min/pmol. The “% Contribution of CYP Enzymes (fmCYP) in Metabolism, CYP2C9” value ([13]; recombinant enzyme) was 82.43%, the “Predicted Microsomal Clint, CYP2D6” value [14] was 0.125 µL/min/mg Protein and the “% Metabolized at 30 min Incubation with Human Liver Fractions/Enzymes rCYP2D6” value [14] was 3.68%. For the same molecule, the “rCYP Clint, CYP2D6” value ([14]; human, recombinant enzyme) was 0.012 µL/min/pmol, the “% Contribution of CYP Enzymes (fmCYP) in Metabolism, CYP2D6” value ([14]; recombinant enzyme) was 0.18% and the “Predicted Microsomal Clint, CYP2C19” value [15] was 6.442 µL/min/mg Protein. For the same molecule, the “% Metabolized at 30 min Incubation with Human Liver Fractions/Enzymes rCYP2C19” value [15] was 63.84%, the “rCYP Clint, CYP2C19” value ([15]; human, recombinant enzyme) was 0.339 µL/min/pmol and the “% Contribution of CYP Enzymes (fmCYP) in Metabolism, CYP2C19” value ([15]; recombinant enzyme) was 9.31%.
With O=C1Cc2cc(CCN3CCN(c4nsc5ccccc45)CC3)c(Cl)cc2N1 [Ziprasidone, ziprasidone, reference compound] the “% Metabolized at 30 min Incubation with Human Liver Fractions/Enzymes Cytosol” value [1] was 10.86%, the “% Inhibition of Control Activity CYP3A4” value ([2]; human, 10 µM, pH 7.4) was 33.06% and the “Predicted Microsomal Clint, CYP3A4” value ([3]; human, pH 7.4) was 53.530 µL/min/mg Protein. The “% Metabolized at 30 min Incubation with Human Liver Fractions/Enzymes rCYP3A4” value ([3]; human, recombinant enzyme, 0.5 h, pH 7.4) was 76.47%, the “% Contribution of CYP Enzymes (fmCYP) in Metabolism, CYP3A4” value [3, 18] was 86.67% and the “rCYP Clint, CYP3A4” value [3, 18] was 0.482 µL/min/pmol. It also gave an inhibition at 2 µM [16] of 8.3%, an inhibition at 2 µM [17] of 22% and an inhibition at 10 µM [17] of 31.1%. The “% Metabolized at 30 min Incubation with Human Liver Fractions/Enzymes HLM” value [5] was 83.11%, the inhibition at 2 µM [7, 19] was < 0% and the inhibition at 10 µM [7, 19] was 12%. The “% Inhibition of Control Activity CYP2C9” value ([8]; inhibitor 10 µM, 10 µM) was 1.44%, the “% Inhibition of Control Activity CYP2D6” value ([10]; inhibitor 10 µM, 10 µM) was 11.70% and the “% Metabolized at 30 min Incubation with Human Liver Fractions/Enzymes rCYP1A2” value [11] was 5.98%. For the same molecule, the “% Contribution of CYP Enzymes (fmCYP) in Metabolism, CYP1A2” value [11, 20] was 1.73%, the “Predicted Microsomal Clint, CYP1A2” value [11, 20] was 1.069 µL/min/mg Protein and the “rCYP Clint, CYP1A2” value [11, 20] was 0.021 µL/min/pmol. For the same molecule, the “% Metabolized at 30 min Incubation with Human Liver Fractions/Enzymes rCYP2C8” value [12] was 22.84%, the “% Contribution of CYP Enzymes (fmCYP) in Metabolism, CYP2C8” value [12, 21] was 8.96% and the “Predicted Microsomal Clint, CYP2C8” value [12, 21] was 5.532 µL/min/mg Protein. The “rCYP Clint, CYP2C8” value [12, 21] was 0.086 µL/min/pmol, the “% Metabolized at 30 min Incubation with Human Liver Fractions/Enzymes rCYP2C9” value [13] was 0.00% and the “% Metabolized at 30 min Incubation with Human Liver Fractions/Enzymes rCYP2D6” value [14] was 3.73%. The “% Contribution of CYP Enzymes (fmCYP) in Metabolism, CYP2D6” value [14, 22] was 0.21%, the “Predicted Microsomal Clint, CYP2D6” value [14, 22] was 0.127 µL/min/mg Protein and the “rCYP Clint, CYP2D6” value [14, 22] was 0.013 µL/min/pmol. The “% Metabolized at 30 min Incubation with Human Liver Fractions/Enzymes rCYP2C19” value [15] was 21.17%, the “% Contribution of CYP Enzymes (fmCYP) in Metabolism, CYP2C19” value [15, 23] was 2.44% and the “Predicted Microsomal Clint, CYP2C19” value [15, 23] was 1.507 µL/min/mg Protein. For the same molecule, the “rCYP Clint, CYP2C19” value [15, 23] was 0.079 µL/min/pmol.
